Where only a bound is given, the exact number is not on record here.

For assay [1], the system named is RNA polymerase II CTD phosphorylation (MDA-MB-231/NCI-H358 cells). Kind of assay: Inhibition of RNA polymerase II CTD phosphorylation in cell western assay. The format is cell-based. As to conditions: 4 hours incubation, phospho RNA Pol II Ser-5 or Ser-2. How it is done: 25000 cells (MDA-MB-231/NCI-H358) were seeded in 96 well black clear bottom plate incubated for overnight before addition of selected compound. 3 fold dilutions of selected compound diluted in DMSO starting from 10 μM, added to cells and incubated for 4 hours at 37° C., 5% CO2 incubator. Cells were washed once with 100 μl of phosphate buffered saline (sigma #P3813), then fixed with 100 μl/well of 4% Para formaldehyde for 60 min at room temperature, in dark. The cells were washed 3 times with 100 μl of wash buffer (PBS with 0.1% Triton-X-100), later blocked for 2 hours at room temperature in blocking buffer (5% BSA in PBST). Cells were stained overnight at 4° C. with Phospho RNA Pol II (S5) (Millipore #04-1572, Abcam #5131) or Phospho RNA Pol II (Ser-2), antibody (Bethyl labs #A300-654-A) in blocking buffer. Post incubation cells were washed with Delifia wash buffer (Perkin Elmer #4010-0010). Cells were treated with LANCE secondary antibodies (LANCE® Eu-W1024 perkin elmer #AD-0076 for phospho Ser-5 CTD RNA pol-II and Delfia Eu-N1 anti rabbit IgG Perkin elmer #AD0106 for phospho Ser-2 CTD RNA pol-II) for 2 hours in assay buffer (Perkin Elmer #1244-111), Cells were washed 3 times with Delfia wash buffer post incubation, Enhancement solution (Perkin Elmer #1244-105) added and incubated for 20 mins. Europium readings were taken in Victor-3 instrument. Cell normalization was done using Hoechst dye (0.5 μg/ml).
Selected compounds were screened in the above mentioned assay procedure. The EC50 values are summarised in the below table; wherein group “A” refers to an EC50 value of less than or equal to 1 μM, group “B” refers to EC50 value in range of 1 to 10 μM and group “C” refers to EC50 value of greater than 10 μM.

A further assay concerns the target CDK7/CycH/MNAT1 (Homo sapiens (Human), UniProt P50613). Kind of assay: Biochemical assay for CDK7 (TR-FRET kinase assay). As to conditions: 60 min pre-incubation, 1 mM ATP; for inhibition at 10 µM: 10 μM compound, read-out: % inhibition @ 10 μM; for IC50: read-out: IC50. The method, boiled down: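 CDK7/CycH/MNAT1 (5 nM) was preincubated with compound for 60 min at room temperature, then reacted for 60 min with 100 nM ULight-MBP and 1 mM ATP in 1% DMSO. Irreversibility was probed with 20, 60 and 180 min preincubations.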

Sequence of CDK7/CycH/MNAT1 (P50613 whole entry): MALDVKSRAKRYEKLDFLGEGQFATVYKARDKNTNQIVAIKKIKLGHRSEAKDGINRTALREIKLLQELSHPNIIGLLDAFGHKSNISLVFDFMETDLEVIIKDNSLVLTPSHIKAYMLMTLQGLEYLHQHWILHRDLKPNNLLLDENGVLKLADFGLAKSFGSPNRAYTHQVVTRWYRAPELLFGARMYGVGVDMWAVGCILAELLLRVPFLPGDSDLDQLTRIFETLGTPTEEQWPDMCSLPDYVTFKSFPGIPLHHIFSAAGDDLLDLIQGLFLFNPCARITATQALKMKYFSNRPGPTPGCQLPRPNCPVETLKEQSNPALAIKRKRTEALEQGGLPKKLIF
Sequence of CDK7/CycH/MNAT1 (P51946 whole entry partner): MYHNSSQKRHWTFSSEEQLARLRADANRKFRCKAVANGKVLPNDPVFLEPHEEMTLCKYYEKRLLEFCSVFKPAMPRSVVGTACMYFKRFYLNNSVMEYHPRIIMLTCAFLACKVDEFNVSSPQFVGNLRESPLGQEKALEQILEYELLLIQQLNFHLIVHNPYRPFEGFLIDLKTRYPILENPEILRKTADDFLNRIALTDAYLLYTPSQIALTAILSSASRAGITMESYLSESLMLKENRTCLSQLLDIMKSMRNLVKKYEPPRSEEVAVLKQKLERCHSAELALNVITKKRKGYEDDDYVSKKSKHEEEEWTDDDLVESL
Sequence of CDK7/CycH/MNAT1 (P51948 whole entry partner): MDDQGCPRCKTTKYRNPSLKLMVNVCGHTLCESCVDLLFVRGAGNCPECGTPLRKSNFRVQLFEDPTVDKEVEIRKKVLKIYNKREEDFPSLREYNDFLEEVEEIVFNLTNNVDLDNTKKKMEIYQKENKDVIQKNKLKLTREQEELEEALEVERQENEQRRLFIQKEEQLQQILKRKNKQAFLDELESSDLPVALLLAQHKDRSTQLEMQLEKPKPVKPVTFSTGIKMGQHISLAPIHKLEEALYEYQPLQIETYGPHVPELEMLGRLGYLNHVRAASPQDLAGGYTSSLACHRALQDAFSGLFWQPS

Consider `C=CC(=O)N[C@H]1CC[C@@H](C(=O)Nc2cccc(CNc3nc(OC4CCN(C)CC4)nc4c(CC)cnn34)c2)CC1` [Compound 90, (1,4-cis)-4-acrylamido-N-(3-(((8-ethyl-2-((1-methylpiperidin-4-yl)oxy)pyrazolo[1,5-a][1,3,5]triazin-4-yl)amino)methyl)phenyl)cyclohexane-1-carboxamide], for which the EC50 (commonly the concentration needed to bring the measured effect to its halfway point) in assay [1] was in the range of 1000 to 10000 nM. Also, on CDK7/CycH/MNAT1, the inhibition (in general, the percentage by which the read-out fell short of the control) at 10 µM stood at 95% and the IC50 (as a rule, the concentration that inhibits the measured activity by half) was < 300 nM.

Regarding `C=CC(=O)N[C@H]1CC[C@H](C(=O)Nc2cccc(CNc3nc(OC4CCN(C)CC4)nc4c(C(C)C)cnn34)c2)CC1` [Compound 91, (1,4-trans)-4-acrylamido-N-(3-(((8-isoproprayl-2-((1-methylpiperidin-4-yl)oxy)pyrazolo[1,5-a][1,3,5]triazin-4-yl)amino)methyl)phenyl)cyclohexane-1-carboxamide], the EC50 in assay [1] is > 10000 nM. Moreover, at CDK7/CycH/MNAT1, the inhibition at 10 µM came out at 94% and the half-maximal inhibitory concentration (IC50) is < 300 nM.

For `C=CC(=O)N1CCC1C(=O)Nc1cccc(CNc2nc(OC3CCN(C)CC3)nc3c(C(C)C)cnn23)c1` (centres unmarked) [Compound 94, 1-acryloyl-N-(3-(((8-isopropyl-2-((1-methylpiperidin-4-yl)oxy)pyrazolo[1,5-a][1,3,5]triazin-4-yl)amino)methyl)phenyl)azetidine-2-carboxamide], the EC50 in assay [1] was ≤ 1000 nM. On CDK7/CycH/MNAT1, the inhibition at 10 µM came out at 99% and the IC50 is < 300 nM.

On to `C=CC(=O)N1CCC(C(=O)Nc2cccc(CNc3nc(OC4CCOCC4)nc4c(C(C)C)cnn34)c2)C1` (centres unmarked) [Compound 95, 1-acryloyl-N-(3-(((8-isopropyl-2-((tetrahydro-2H-pyran-4-yl)oxy)pyrazolo[1,5-a][1,3,5]triazin-4-yl)amino)methyl)phenyl)pyrrolidine-3-carboxamide], for which the 50% effective concentration (EC50) in assay [1] was ≤ 1000 nM. Besides, at CDK7/CycH/MNAT1, the inhibition at 10 µM is 93% and the concentration for half-maximal inhibition (IC50) was < 300 nM.

Take `C=CC(=O)N1CCCC(C(=O)Nc2cccc(CNc3nc(OC4CCOCC4)nc4c(C(C)C)cnn34)c2)C1` (centres unmarked) [Compound 96, 1-acryloyl-N-(3-(((8-isopropyl-2-((tetrahydro-2H-pyran-4-yl)oxy)pyrazolo[1,5-a][1,3,5]triazin-4-yl)amino)methyl)phenyl)piperidine-3-carboxamide]: in assay [1], the EC50 lay within 1000 to 10000 nM. Further, on CDK7/CycH/MNAT1, the inhibition at 10 µM was 87% and the 50% inhibitory concentration (IC50) was in the range of 300 to 1000 nM.

The compound `C=CC(=O)N[C@H]1CC[C@@H](C(=O)Nc2cccc(CNc3nc(OC4CCOCC4)nc4c(C(C)C)cnn34)c2)CC1` [Compound 97, (1,4-cis)-4-acrylamido-N-(3-(((8-isopropyl-2-((tetrahydro-2H-pyran-4-yl)oxy)pyrazolo[1,5-a][1,3,5]triazin-4-yl)amino)methyl)phenyl)cyclohexane-1-carboxamide] returned an EC50 in assay [1] of 1000 to 10000 nM. Also, at CDK7/CycH/MNAT1, the inhibition at 10 µM turned out to be 87% and the half-inhibitory concentration (IC50) was 300 to 1000 nM.

In the case of `C=CC(=O)N[C@H]1CC[C@@H](C(=O)Nc2cccc(CNc3nc(OC4CCN(C)C4)nc4c(C(C)C)cnn34)c2)CC1` (stereo partly drawn) [Compound 101, (1,4-cis)-4-acrylamido-N-(3-(((8-isopropyl-2-((1-methylpyrrolidin-3-yl)oxy)pyrazolo[1,5-a][1,3,5]triazin-4-yl)amino)methyl)phenyl)cyclohexane-1-carboxamide], in assay [1], the EC50 was 1000 to 10000 nM. Also, on CDK7/CycH/MNAT1, the inhibition at 10 µM was found to be 96% and the concentration for half-maximal inhibition (IC50) is < 300 nM.

Take `C=CC(=O)N[C@H]1CC[C@@H](C(=O)Nc2cccc(CNc3nc(OC4CCN(C)CC4)nc4c(C5CC5)cnn34)c2)CC1` [Compound 105, (1,4-cis)-4-acrylamido-N-(3-(((8-cyclopropyl-2-((1-methylpiperidin-4-yl)oxy)pyrazolo[1,5-a][1,3,5]triazin-4-yl)amino)methyl)phenyl)cyclohexane-1-carboxamide]: in assay [1], the EC50 was > 10000 nM. On CDK7/CycH/MNAT1, the inhibition at 10 µM is 92% and the 50% inhibitory concentration (IC50) was < 300 nM.

In assay [1], `C=CC(=O)N1CCC(C(=O)Nc2cccc(CNc3nc(OC4CCNCC4)nc4c(C(C)C)cnn34)c2)CC1` [Compound 106, 1-acryloyl-N-(3-(((8-isopropyl-2-(piperidin-4-yloxy)pyrazolo[1,5-a][1,3,5]triazin-4-yl)amino)methyl)phenyl)piperidine-4-carboxamide] registered an EC50 of 1000 to 10000 nM. Further, on CDK7/CycH/MNAT1, the inhibition at 10 µM is 91% and the IC50 was > 1000 nM.

`C=CC(=O)N1CCC(C(=O)Nc2cccc(CNc3nc(OCCCCN)nc4c(C(C)C)cnn34)c2)CC1` [Compound 107, 1-acryloyl-N-(3-(((2-(4-aminobutoxy)-8-isopropylpyrazolo[1,5-a][1,3,5]triazin-4-yl)amino)methyl)phenyl)piperidine-4-carboxamide] showed an EC50 in assay [1] of 1000 to 10000 nM. Further, on CDK7/CycH/MNAT1, the inhibition at 10 µM worked out at 95% and the IC50 is < 300 nM.

As for `C=CC(=O)N1CCC(C(=O)Nc2cccc(CNc3nc(OC4CCN(C)CC4)nc4c(C(C)C)cnn34)c2)C1` (centres unmarked) [Compound 108, 1-acryloyl-N-(3-(((8-isopropyl-2-((1-methylpiperidin-4-yl)oxy)pyrazolo[1,5-a][1,3,5]triazin-4-yl)amino)methyl)phenyl)pyrrolidine-3-carboxamide], in assay [1], the concentration giving a half-maximal response (EC50) lay within 1000 to 10000 nM. At CDK7/CycH/MNAT1, the inhibition at 10 µM was found to be 99% and the 50% inhibitory concentration (IC50) is < 300 nM.

Turning to `C=CC(=O)N1CCC(C(=O)Nc2cccc(CNc3nc(OC4CCN(C)CC4)nc4c(C(C)C)cnn34)c2)CC1` [Compound 111, 1-acryloyl-N-(3-(((8-isopropyl-2-((1-methylpiperidin-4-yl)oxy)pyrazolo[1,5-a][1,3,5]triazin-4-yl)amino)methyl)phenyl)piperidine-4-carboxamide], the half-maximal effective concentration (EC50) in assay [1] is 1000 to 10000 nM. Further, on CDK7/CycH/MNAT1, the inhibition at 10 µM stood at 95% and the IC50 was < 300 nM.

The compound `C=CC(=O)NC1CCCC(C(=O)Nc2cccc(CNc3nc(OC4CCN(C)CC4)nc4c(C(C)C)cnn34)c2)C1` (centres unmarked) [Compound 114, 3-acrylamido-N-(3-(((8-isopropyl-2-((1-methylpiperidin-4-yl)oxy)pyrazolo[1,5-a][1,3,5]triazin-4-yl)amino)methyl)phenyl)cyclohexane-1-carboxamide] displayed a half-maximal effective concentration (EC50) in assay [1] of 1000 to 10000 nM. Besides, at CDK7/CycH/MNAT1, the inhibition at 10 µM worked out at 97% and the IC50 was < 300 nM.

On to `C=CC(=O)N[C@H]1CC[C@@H](C(=O)Nc2cccc(CNc3nc(OC4CCN(C)CC4)nc4c(C(C)C)cnn34)c2)CC1` [Compound 115, (1,4-cis)-4-acrylamido-N-(3-(((8-isopropyl-2-((1-methylpiperidin-4-yl)oxy)pyrazolo[1,5-a][1,3,5]triazin-4-yl)amino)methyl)phenyl)cyclohexane-1-carboxamide], for which the EC50 in assay [1] is ≤ 1000 nM. On CDK7/CycH/MNAT1, the inhibition at 10 µM was 94% and the 50% inhibitory concentration (IC50) is < 300 nM.

For `C=CC(=O)N1CCCC(C(=O)Nc2cccc(CNc3nc(OC4CCN(C)CC4)nc4c(C(C)C)cnn34)c2)C1` (centres unmarked) [Compound 116, 1-acryloyl-N-(3-(((8-isopropyl-2-((1-methylpiperidin-4-yl)oxy)pyrazolo[1,5-a][1,3,5]triazin-4-yl)amino)methyl)phenyl)piperidine-3-carboxamide], in assay [1], the EC50 lay in the range of 1000 to 10000 nM. Besides, at CDK7/CycH/MNAT1, the inhibition at 10 µM was determined as 92% and the 50% inhibitory concentration (IC50) is < 300 nM.

In turn, `C=CC(=O)N1CCCC(C(=O)Nc2cc(CNc3nc(OC4CCN(C)CC4)nc4c(C(C)C)cnn34)ccc2F)C1` (centres unmarked) [Compound 117, 1-acryloyl-N-(2-fluoro-5-(((8-isopropyl-2-((1-methylpiperidin-4-yl)oxy)pyrazolo[1,5-a][1,3,5]triazin-4-yl)amino)methyl)phenyl)piperidine-3-carboxamide] came in with an EC50 in assay [1] of 1000 to 10000 nM. At CDK7/CycH/MNAT1, the inhibition at 10 µM was determined as 95% and the IC50 was < 300 nM.

In the case of `C=CC(=O)N1CCCC(C(=O)Nc2cccc(C(C)Nc3nc(OC4CCN(C)CC4)nc4c(C(C)C)cnn34)c2)C1` (centres unmarked) [Compound 119, 1-acryloyl-N-(3-(1-((8-isopropyl-2-((1-methylpiperidin-4-yl)oxy)pyrazolo[1,5-a][1,3,5]triazin-4-yl)amino)ethyl)phenyl)piperidine-3-carboxamide], in assay [1], the concentration giving a half-maximal response (EC50) is > 10000 nM. In addition, on CDK7/CycH/MNAT1, the inhibition at 10 µM worked out at 99% and the half-maximal inhibitory concentration (IC50) is < 300 nM.

Turning to `CC(C)c1cnn2c(NCc3cccc(NC(=O)C4CCCN(C(=O)/C=C/CN(C)C)C4)c3)nc(OC3CCN(C)CC3)nc12` (centres unmarked) [Compound 122, (E)-1-(4-(dimethylamino)but-2-enoyl)-N-(3-(((8-isopropyl-2-((1-methyl-piperidin-4-yl)oxy)pyrazolo[1,5-a][1,3,5]triazin-4-yl)amino)methyl)phenyl)-piperidine-3-carboxamide], in assay [1], the 50% effective concentration (EC50) is > 10000 nM. In addition, the half-inhibitory concentration (IC50) at CDK7/CycH/MNAT1 was < 300 nM.

The record behind these values is US11186576B2, “Pyrazolo[1,5-A][1,3,5]triazine and pyrazolo[1,5-A]pyrimidine derivatives as CDK inhibitors” (Aurigene Discovery Technologies Limited, priority 2015, dated 2021).
